Results on two molecules are retold here after US10391086B2, “Use of EP4 receptor antagonists in the treatment of cartilage disease” (AskAt Inc., priority 2013, dated 2019).

This assay has as its system bovine full-depth cartilage explants. As to the kind of experiment: Ex vivo bovine cartilage explant model. It counts as cell-based. The conditions noted are these: serum-free culture, biomarkers (P2NP, C2M, AGNx1, AGNx2) in supernatant at day 7, 14 and 21, FIG. 1 (C2M) and FIG. 2 (AGNx2), oncostatin M + TNF-alpha. As for the experimental part: The method of this assay is descrived in the following literature (Rheumatol Int. 2013 February; 33(2):401-11).
Full-depth cartilage explants were harvested from the knee of either back legs of a cow less than 24 month old. All the FDC explants are divided into different treatment group according to the explants weight and metabolic activity (viability) measured by Alamar Blue. Compounds were freshly added to the explants at each media change. The explants were cultured in serum-free conditions. Supernatants retrieved from the culture were analyzed by biomarkers (P2NP, C2M, AGNx1, AGNx2) at day 7, 14 and 21.

Take `CCc1nc2c(C)nc(C)cc2n1-c1ccc(CCNC(=O)NS(=O)(=O)c2ccc(C)cc2)cc1` [Compound A, 3-[2-(4-{2-ethyl-4,6-dimethyl-1H-imidazo[4,5-c]pyridin-1-yl}phenyl)ethyl]-1-[(4-methylbenzene)sulfonyl]urea]: the “inhibition of cartilage destruction” value was “dose-dependent inhibition of cartilage destruction”.

Take `C[C@H](NC(=O)c1cc(Cl)cnc1Oc1cccc(F)c1)c1ccc(C(=O)O)cc1` [Compound B, 4-[(1S)-1-({[5-chloro-2-(3-fluorophenoxy)pyridin-3-yl]carbonyl}amino)ethyl]benzoic acid]: the “inhibition of cartilage destruction” value is “dose-dependent inhibition of cartilage destruction”.
